Test system: d(CTG)16 (DNA, repeat) GGGCTGCTGCTGCTGCTGCTGCTGCTGCTGCTGCTGCTGCTGCTGCTGCTGCCC
Experiment: ITC
Settings: monomer alone

Kd [µM] | Structure (SMILES)
> 100 | N=C(NCCCCNc1nc(N)nc(NCc2ccc(N)cc2)n1)c1ccc(C(=N)NCCCCNc2nc(N)nc(NCc3ccc(N)cc3)n2)cc1
81.6 ± 0.9 | N=C(NCCCCNc1nc(N)nc(NCc2ccc(C=O)cc2)n1)c1ccc(C(=N)NCCCCNc2nc(N)nc(NCc3ccc(C=O)cc3)n2)cc1
